Experimental data published in US20250215029A1 (Recludix Pharma, Inc., priority 2022, published 2025).
Like-named read-outs stand apart in the source and are kept apart here.

Key:
pY641-STAT6 in PBMC = target: T1, pY641-STAT6 in PBMC (Homo sapiens, UniProt P42226); experiment: MSD-pSTAT-PBMC Assay (pSTAT6, IL-4 stimulated); assay type: cell-based; conditions: compound 3 hrs, then 1 ng/mL IL-4 for 10 min
T1 construct: Cryopreserved Peripheral Blood Mononuclear Cells (PBMC) are from AllCells; host or cells: cryopreserved PBMC
T1 sequence (P42226 1-847): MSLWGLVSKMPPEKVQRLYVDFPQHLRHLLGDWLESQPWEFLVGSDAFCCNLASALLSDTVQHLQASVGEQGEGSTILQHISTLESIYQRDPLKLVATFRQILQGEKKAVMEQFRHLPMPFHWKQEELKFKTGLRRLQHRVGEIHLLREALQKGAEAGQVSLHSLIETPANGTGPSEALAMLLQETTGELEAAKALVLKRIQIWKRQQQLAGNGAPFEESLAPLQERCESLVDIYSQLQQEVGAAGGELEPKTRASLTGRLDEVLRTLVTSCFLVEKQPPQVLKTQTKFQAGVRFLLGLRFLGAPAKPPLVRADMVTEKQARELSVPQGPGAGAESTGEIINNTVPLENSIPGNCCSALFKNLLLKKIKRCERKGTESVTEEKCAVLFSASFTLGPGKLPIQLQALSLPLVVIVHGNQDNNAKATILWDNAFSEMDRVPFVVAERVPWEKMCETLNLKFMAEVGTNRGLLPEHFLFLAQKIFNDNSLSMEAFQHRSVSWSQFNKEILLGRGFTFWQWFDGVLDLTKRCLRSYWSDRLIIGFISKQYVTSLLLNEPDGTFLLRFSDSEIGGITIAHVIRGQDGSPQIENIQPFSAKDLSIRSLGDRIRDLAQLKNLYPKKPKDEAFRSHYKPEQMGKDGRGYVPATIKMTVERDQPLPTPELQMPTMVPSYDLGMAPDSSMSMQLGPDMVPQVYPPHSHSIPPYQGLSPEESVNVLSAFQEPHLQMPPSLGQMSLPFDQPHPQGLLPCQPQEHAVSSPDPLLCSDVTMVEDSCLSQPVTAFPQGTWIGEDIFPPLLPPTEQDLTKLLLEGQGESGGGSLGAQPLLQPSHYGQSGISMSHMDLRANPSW
Method in brief: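 Thawed human PBMC rested overnight in IMDM/10% FBS, then got compound for 3 hrs before a 10 min cytokine pulse: 1 ng/mL IL-4 for pSTAT6, 10 ng/mL IL-6 for pSTAT3. Lysates went to MSD sandwich capture on total STAT6 or STAT3 with phospho-specific detection. IC50 came from background-subtracted, DMSO-normalized signal.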

pY705-STAT3 in PBMC = target: T2, pY705-STAT3 in PBMC (Homo sapiens, UniProt P40763); experiment: MSD-pSTAT-PBMC Assay (pSTAT3, IL-6 stimulated); assay type: cell-based; conditions: compound 3 hrs, then 10 ng/mL IL-6 for 10 min
T2 construct: Cryopreserved Peripheral Blood Mononuclear Cells (PBMC) are from AllCells; host or cells: cryopreserved PBMC
Method in brief: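 Cells are preincubated with compound for 3 hrs, then stimulated for 10 min, IL-4 at 1 ng/mL driving STAT6 phosphorylation and IL-6 at 10 ng/mL driving STAT3. Phospho-STAT in lysates is quantified by MSD immunoassay, and IC50 is fitted after subtracting unstimulated wells.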

[1] = PBMC, Table 1114, read-out: pSTAT6
[2] = PBMC, Table 1114, read-out: pSTAT3
[3] = PBMC, Table 115, read-out: STAT3
[4] = PBMC, Table 115, read-out: STAT6

T2 sequence (P40763 whole entry): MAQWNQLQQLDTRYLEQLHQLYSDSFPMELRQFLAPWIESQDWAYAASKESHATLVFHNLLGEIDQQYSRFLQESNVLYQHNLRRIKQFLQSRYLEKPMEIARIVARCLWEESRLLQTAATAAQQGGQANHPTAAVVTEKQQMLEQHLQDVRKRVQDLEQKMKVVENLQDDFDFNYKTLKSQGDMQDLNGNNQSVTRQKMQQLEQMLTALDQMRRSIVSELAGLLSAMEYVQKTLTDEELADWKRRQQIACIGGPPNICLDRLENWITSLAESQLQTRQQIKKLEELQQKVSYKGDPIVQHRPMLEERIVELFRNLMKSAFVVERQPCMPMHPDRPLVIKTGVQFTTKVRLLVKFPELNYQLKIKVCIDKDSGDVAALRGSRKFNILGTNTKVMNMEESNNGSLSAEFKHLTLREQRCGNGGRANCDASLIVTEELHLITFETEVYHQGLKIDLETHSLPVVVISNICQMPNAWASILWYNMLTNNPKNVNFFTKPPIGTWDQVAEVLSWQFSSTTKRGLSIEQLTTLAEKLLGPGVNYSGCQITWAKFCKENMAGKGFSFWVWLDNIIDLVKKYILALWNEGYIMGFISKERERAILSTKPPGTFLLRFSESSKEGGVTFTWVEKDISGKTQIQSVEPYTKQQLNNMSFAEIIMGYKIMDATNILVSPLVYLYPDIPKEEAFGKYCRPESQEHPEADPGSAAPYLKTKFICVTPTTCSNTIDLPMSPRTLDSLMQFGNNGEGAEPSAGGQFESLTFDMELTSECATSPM

SMILES | IC50 (pY641-STAT6 in PBMC; [1]) [nM] | IC50 (pY705-STAT3 in PBMC; [2]) [nM] | IC50 (pY705-STAT3 in PBMC; [3]) [nM] | further results
CC(C)(C)C(=O)OCOP(=O)(OCOC(=O)C(C)(C)C)C(F)(F)c1ccc2sc(C(=O)N[C@H]3CCC[C@H]4CCC[C@@H](C(=O)N5CC(C#N)C(c6ccccc6)C5)N4C3=O)cc2c1 (stereo partly drawn) [Compound 170, ((((2-(((4S,7S,10aS)-4-(rel-(trans)-3-cyano-4-phenylpyrrolidine-1-carbonyl)-6-oxodecahydropyrido [1,2-a]azepin-7-yl)carbamoyl)benzo[b]thiophen-5-yl)difluoromethyl)phosphoryl)bis(oxy)) bis(methylene) bis(2,2-dimethylpropanoate)] | < 100 | 100 to 1000 | – | –
CCCOC(=O)[C@H](C)NP(=O)(Oc1ccccc1)[C@@H](F)c1ccc2sc(C(=O)N[C@H]3CCC[C@H]4CC[C@@H](C(=O)N5CC(c6cnccc6N(C)C)C5)N4C3=O)cc2c1 (stereo partly drawn) [Compound 942, propyl (((R)-(2-(((3S,6S, 9aS)-3-(3-(4-(dimethylamino)pyridin-3-yl)azetidine-1-carbonyl)-5-oxooctahydro-1H-pyrrolo[1,2-a]azepin-6-yl)carbamoyl)benzo [b]thiophen-5-yl)fluoromethyl) (phenoxy)phosphoryl)-L-alaninate] | – | – | 100 to 1000 | IC50 (pY641-STAT6 in PBMC; STAT6, PBMC, Table 115): > 3000 nM
CC(C)CC(=O)SCCOP(=O)(OCCSC(=O)CC(C)C)C(F)(F)c1ccc2sc(C(=O)N[C@H]3CCCC(C)[C@H]4CC[C@@H](C(=O)N5CC(c6cccnc6)C5)N4C3=O)cc2c1 (stereo partly drawn) [Compound 161, S,S′-((((difluoro(2-(((3S,6S,10aR)-10-methyl-5-oxo-3-(3-(pyridin-3-yl)azetidine-1-carbonyl)decahydropyrrolo [1,2-a]azocin-6-yl)carbamoyl)benzo[b]thiophen-5-yl)methyl)phosphoryl)bis(oxy))bis(ethane-2,1-diyl)) bis(3-methylbutane thioate)] | > 3000 | < 100 | – | –
CC(C)OC(=O)OCOP(=O)(Cc1ccc2sc(C(=O)N[C@H]3CCCC[C@H]4CC[C@@H](C(=O)N5C[C@@H](C#N)[C@H](c6ccccc6)C5)N4C3=O)cc2c1)OCOC(=O)OC(C)C (single isomer, unassigned) [Compound 148, ((((2-(((3S,6S,10aS)-3-((3S,4R or 3R,4S)-3-cyano-4-phenylpyrrolidine-1-carbonyl)-5-oxodecahydro-pyrrolo[1,2-a]azocin-6-yl)carbamoyl)benzo[b]thiophen-5-yl)methyl)phosphoryl)bis(oxy))bis(methylene) diisopropyl bis(carbonate)] | 100 to 1000 | > 3000 | – | –
CC(C)CC(=O)SCCOP(=O)(OCCSC(=O)CC(C)C)C(F)(F)c1ccc2sc(C(=O)N[C@H]3CCCC[C@H]4CC[C@@H](C(=O)N5C[C@@H](C#N)[C@H](c6cc[nH]c(=O)c6)C5)N4C3=O)cc2c1 (single isomer, unassigned) [Compound 154, S,S′-(((((2-(((3S,6S,10aS)-3-((3S,4R or 3R,4S)-3-cyano-4-(2-oxo-1,2-dihydropyridin-4-yl)pyrrolidine-1-carbonyl)-5-oxodecahydro-pyrrolo[1,2-a]azocin-6-yl)carbamoyl)benzo [b]thiophen-5-yl)difluoromethyl)phosphoryl)bis (oxy))bis(ethane-2,1-diyl)) bis(3-methylbutane thioate)] | 100 to 1000 | 100 to 1000 | – | –
CCCC(=O)SCCOP(=O)(OCCSC(=O)CCC)C(F)(F)c1ccc2sc(C(=O)NC3CCCC4CCC(C(=O)N5CC(c6cccnc6)C5)N4C3=O)cc2c1 [Compound 179, S,S′-((((difluoro(2-(((3S,6S,9aS)-5-oxo-3-(3-(pyridin-3-yl)azetidine-1-carbonyl)octahydro-1H-pyrrolo[1,2-a]azepin-6-yl)carbamoyl)benzo[b]thiophen-5-yl)methyl)phosphoryl)bis(oxy))bis(ethane-2,1-diyl)) dibutanethioate] | 1000 to 3000 | < 100 | – | –
CC(C)(C)C(=O)SCCOP(=O)(OCCSC(=O)C(C)(C)C)C(F)(F)c1ccc2sc(C(=O)N[C@H]3CCCC[C@H]4CC[C@@H](C(=O)N5C[C@@H](C#N)[C@H](c6cc[nH]c(=O)c6)C5)N4C3=O)cc2c1 (relative stereo) [Compound 157, S,S′-(((((2-(((3S,6S,10aS)-3-(rel-(trans)-3-cyano-4-(2-oxo-1,2-dihydropyridin-4-yl)pyrrolidine-1-carbonyl)-5-oxodecahydro-pyrrolo[1,2-a]azocin-6-yl)carbamoyl)benzo [b]thiophen-5-yl)difluoromethyl)phosphoryl)bis(oxy))bis(ethane-2,1-diyl)) bis(2,2-dimethylpropane-thioate)] | 100 to 1000 | 100 to 1000 | – | –
CC(C)CC(=O)SCCOP(=O)(Oc1cccc(C#N)c1)C(F)(F)c1ccc2sc(C(=O)N[C@H]3CCCC[C@H]4CC[C@@H](C(=O)N5C[C@H](c6ccccc6)[C@@H](C#N)C5)N4C3=O)cc2c1 (single isomer, unassigned) [Compound 1007] | – | – | – | IC50 (pY641-STAT6 in PBMC; STAT6, PBMC, Table 115): 100 to 1000 nM; IC50 (pY705-STAT3 in PBMC; STAT3, PBMC, Table 115): > 3000 nM

The next lines start with results.

IC50 (pY641-STAT6 in PBMC; [1]) [nM] | IC50 (pY705-STAT3 in PBMC; [2]) [nM] | IC50 (pY705-STAT3 in PBMC; [3]) [nM] | SMILES | further results
100 to 1000 | < 100 | – | CC(C)(C)C(=O)OCOP(=O)(OCOC(=O)C(C)(C)C)C(F)(F)c1ccc2sc(C(=O)N[C@H]3CCCC[C@H]4CC[C@@H](C(=O)N5CC6(CN(C(=O)Cc7ccccc7)C6)C5)N4C3=O)cc2c1 [Compound 191, (((difluoro(2-(((3S,6S,10aS)-5-oxo-3-(6-(2-phenylacetyl)-2,6-diazaspiro[3. 3]heptane-2-carbonyl)decahydro-pyrrolo [1,2-a]azocin-6-yl)carbamoyl)benzo[b]thiophen-5-yl)methyl)phosphoryl)bis (oxy))bis (methylene) bis(2,2-dimethyl-propanoate)] | –
– | – | < 100 | CC(C)(C)C(=O)SCCOP(=O)(OCCSC(=O)C(C)(C)C)C(F)(F)c1ccc2sc(C(=O)N[C@H]3CCC[C@H]4CC[C@@H](C(=O)N5CC(c6cnccc6F)C5)N4C3=O)cc2c1 [Compound 324, S,S′-((((difluoro(2-(((3S,6S,9aS)-3-(3-(4-fluoropyridin-3-yl)azetidine-1-carbonyl)-5-oxooctahydro-1H-pyrrolo[1,2-a]azepin-6-yl)carbamoyl)benzo [b]thiophen-5-yl)methyl)phosphoryl)bis(oxy))bis(ethane-2,1-diyl)) bis(2,2-dimethyl-propanethioate)] | IC50 (pY641-STAT6 in PBMC; [4]): > 3000 nM
1000 to 3000 | > 3000 | – | CC(C)(O)CC(=O)SCCOP(=O)(OCCSC(=O)CC(C)(C)O)C(F)(F)c1ccc2sc(C(=O)N[C@H]3CCCC[C@H]4CC[C@@H](C(=O)N5C[C@@H](C#N)[C@H](c6ccccc6)C5)N4C3=O)cc2c1 (single isomer, unassigned) [Compound 202, S,S′-(((((2-(((3S,6S,10a S)-3-((3S,4R or 3R,4S)-3-cyano-4-phenylpyrrolidine-1-carbonyl)-5-oxodecahydro-pyrrolo [1,2-a]azocin-6-yl)carbamoyl)benzo [b]thiophen-5-yl)difluoromethyl)phosphoryl)bis(oxy))bis(ethane-2,1-diyl)) bis(3-hydroxy-3-methylbutane thioate)] | –
– | – | < 100 | CC(C)CC(=O)SCCOP(=O)(OCCSC(=O)CC(C)C)C(F)(F)c1ccc2sc(C(=O)N[C@H]3CCC[C@H]4CC[C@@H](C(=O)N5CC(c6ncccn6)C5)N4C3=O)cc2c1 [Compound 961, S,S′-((((difluoro(2-(((3S,6S,9aS)-5-oxo-3-(3-(pyrimidin-2-yl)azetidine-1-carbonyl)octahydro-1H-pyrrolo[1,2-a]azepin-6-yl)carbamoyl)benzo [b]thiophen-5-yl)methyl)phosphoryl)bis(oxy))bis(ethane-2,1-diyl)) bis(3-methylbutanethioate)] | IC50 (pY641-STAT6 in PBMC; [4]): 1000 to 3000 nM
– | – | > 3000 | CC(C)CC(=O)SCCOP(=O)(OCCSC(=O)CC(C)C)C(F)(F)c1ccc2ccc(C(=O)N[C@H]3CCCC[C@H]4CC[C@@H](C(=O)N5CC(c6ccccc6)CC56CC6)N4C3=O)cc2c1 (stereo partly drawn) [Compound 1101, S,S′-((((difluoro(7-(((3S,6S,10aS)-5-oxo-3-(6-phenyl-4-azaspiro[2.4]heptane-4-carbonyl)decahydropyrrolo[1,2-a]azocin-6-yl)carbamoyl)naphthalen-2-yl)methyl)phosphoryl)bis(oxy))bis(ethane-2,1-diyl)) bis(3-methylbutanethioate)] | IC50 (pY641-STAT6 in PBMC; [4]): < 100 nM
